ChEMBL document CHEMBL6103657, “Discovery of a Potent SARM1 Base-Exchange Inhibitor with In Vivo Efficacy” (J Med Chem, 2025)

Tests used:
[1] = physchem; settings: octanol/aqueous buffer, pH 7.4
[2] = physchem; settings: buffer, pH 6.5

| SMILES | logD [1] | solubility [2] |
| --- | --- | --- |
| C[C@@H](c1ccncc1)N(C)/C(=N\C#N)NC1COCC1(F)F (stereo partly specified) | 0.9 | > 309 µg/mL |
| CN(Cc1ccncc1)C(=O)NC1COCC1(F)F (stereo unspecified) | 0.3 | > 271 µg/mL |
| CC[C@@H](c1ccncc1)N(C)C(=O)N[C@@H]1COCC1(F)F | 0.73 | > 299 µg/mL |
